From patent US9745283B2, “Uracil derivatives as AXL and c-MET kinase inhibitors” (priority 2011, dated 2017)
Like-named read-outs stand apart in the source and are kept apart here.

Key:
[1] = target: recombinant human baculovirus-expressed AXL (Homo sapiens (Human), UniProt P30530); assay: AXL Kinase Assay (HTRF KinEASE); type: biochemical; conditions: average of two or more determinations
Experimental: The ability of compounds to inhibit the kinase activity of recombinant human baculovirus-expressed AXL was measured by homogeneous TRF (HTRF) using Cisbio's KinEASE™ assay system in white 384-well Optiplates. Assay buffer contained 1 mM DTT, 2 mM MnCl2, 2% DMSO, […] supplement enzymatic buffer, and 1× enzymatic buffer. A 2× concentration of tyrosine kinase (TK) substrate-biotin/ATP mixture made in assay buffer was added to plates at 10 μL/well using the Multidrop Combi (Thermo Fisher Scientific, Waltham, Mass.). […] Compounds (100 nL), diluted in 100% DMSO on the Biomek FX, (Beckman Coulter, Inc., Brea, Calif.), were transferred to the assay plates using the Biomek FX pintool (2.5% final DMSO in assay). […] Plates were sealed, briefly shaken and incubated at 25° C. for 30 minutes. […] Plates were sealed, briefly shaken and incubated at 25° C. for 1 hour.
Inhibition curves for compounds were generated by plotting percent control activity versus log 10 of the concentration of compound. IC50 values were calculated by nonlinear regression using the sigmoidal dose-response (variable slope) equation in GraphPad Prism as follows: y=bottom+(top−bottom)/(1+10(log IC50−x)*Hill Slope) where y is the % kinase activity at a given concentration of compound, x is the logarithm of the concentration of compound, bottom is the % of control kinase activity at the highest compound concentration tested, and top is the % of control kinase activity at the lowest compound concentration examined. The values for bottom and top were fixed at 0 and 100, respectively.

[2] = target: recombinant human baculovirus-expressed cMET (Homo sapiens (Human), UniProt P08581); assay: C-MET Kinase Assay (HTRF KinEASE); type: biochemical
Summary of the method: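 HTRF KinEASE format with recombinant human baculovirus-expressed cMET at 8 ng/mL, biotinylated peptide at 0.1 μM and ATP at 0.02 μM. IC50 came from percent control activity versus log concentration, fitted by nonlinear regression to a variable-slope sigmoidal equation with bottom fixed at 0 and top at 100.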

[3] = average of two or more determinations, read-out: c-MET IC50

SMILES | IC50 [1] | IC50 [2, 3] | IC50 [2]
CCC(C)Cn1c(=O)c(C(=O)Nc2ccc(Oc3ccnc4cc(OC)c(OC)cc34)c(F)c2)nn(C)c1=O (racemic) [Example 130, ±2-Methyl-4-(2-methyl-butyl)-3,5-dioxo-2,3,4,5-tetrahydro-[1,2,4]triazine-6-carboxylic acid [4-(6,7-dimethoxy-quinolin-4-yloxy)-3-fluoro-phenyl]-amide] | < 10 nM | 10 to 100 nM | 
CCn1cc(C(=O)Nc2ccc(Oc3ccnc4cc(OC)c(OC)cc34)c(F)c2)c(=O)n(-c2ccc(F)cc2)c1=O [Example 1, 1-Ethyl-3-(4-fluorophenyl)-2,4-dioxo-1,2,3,4-tetrahydropyrimidine-5-carboxylicacid [4-(6,7-dimethoxyquinolin-4-yloxy)-3-fluorophenyl]amide] | < 10 nM | < 10 nM | 
COc1cc2nccc(Oc3ccc(NC(=O)c4cn(C)c(=O)n(-c5ccc(F)cc5)c4=O)cc3F)c2cc1OC [Example 2, 3-(4-Fluorophenyl)-1-methyl-2,4-dioxo-1,2,3,4-tetrahydropyrimidine-5-carboxylic acid [4-(6,7-dimethoxyquinolin-4-yloxy)-3-fluoro-phenyl]-amide] | < 10 nM | < 10 nM | 
CCOCCn1cc(C(=O)Nc2ccc(Oc3ccnc4cc(OC)c(OC)cc34)c(F)c2)c(=O)n(-c2ccc(F)cc2)c1=O [Example 4, 1-(2-Ethoxyethyl)-3-(4-fluorophenyl)-2,4-dioxo-1,2,3,4-tetrahydropyrimidine-5-carboxylic acid [4-(6,7-dimethoxyquinolin-4-yloxy)-3-fluorophenyl]-amide] | < 10 nM | 10 to 100 nM | 
COc1cc2nccc(Oc3ccc(NC(=O)c4cn(C(C)C)c(=O)n(-c5ccc(F)cc5)c4=O)cc3F)c2cc1OC [Example 5, 3-(4-Fluorophenyl)-1-isopropyl-2,4-dioxo-1,2,3,4-tetrahydropyrimidine-5-carboxylic acid [4-(6,7-dimethoxyquinolin-4-yloxy)-3-fluorophenyl]-amide] | < 10 nM |  | 10 to 100 nM
COc1cc2nccc(Oc3ccc(NC(=O)c4cn(CC(C)C)c(=O)n(-c5ccc(F)cc5)c4=O)cc3F)c2cc1OC [Example 8, 3-(4-Fluorophenyl)-1-isobutyl-2,4-dioxo-1,2,3,4-tetrahydropyrimidine-5-carboxylic acid [4-(6,7-dimethoxyquinolin-4-yloxy)-3-fluorophenyl]-amide] | < 10 nM | 10 to 100 nM | 
C=CCn1cc(C(=O)Nc2ccc(Oc3ccnc4cc(OC)c(OC)cc34)c(F)c2)c(=O)n(-c2ccc(F)cc2)c1=O [Example 9, 1-Allyl-3-(4-fluorophenyl)-2,4-dioxo-1,2,3,4-tetrahydropyrimidine-5-carboxylic acid [4-(6,7-dimethoxyquinolin-4-yloxy)-3-fluorophenyl]-amide] | < 10 nM | < 10 nM | 
CCCn1cc(C(=O)Nc2ccc(Oc3ccnc4cc(OC)c(OC)cc34)c(F)c2)c(=O)n(-c2ccc(F)cc2)c1=O [Example 11, 3-(4-Fluorophenyl)-2,4-dioxo-1-propyl-1,2,3,4-tetrahydropyrimidine-5-carboxylic acid [4-(6,7-dimethoxyquinolin-4-yloxy)-3-fluorophenyl]-amide] | < 10 nM | 10 to 100 nM | 
COc1cc2nccc(Oc3ccc(NC(=O)c4cn(CC=C(F)F)c(=O)n(-c5ccc(F)cc5)c4=O)cc3F)c2cc1OC [Example 14, 1-(3,3-Difluoro-allyl)-3-(4-fluorophenyl)-2,4-dioxo-1,2,3,4-tetrahydropyrimidine-5-carboxylic acid [4-(6,7-dimethoxyquinolin-4-yloxy)-3-fluorophenyl]-amide] | < 10 nM | < 10 nM | 
COc1cc2nccc(Oc3ccc(NC(=O)c4cn(CCN5CCOCC5)c(=O)n(-c5ccc(F)cc5)c4=O)cc3F)c2cc1OC [Example 16, 3-(4-Fluorophenyl)-1-(2-morpholin-4-yl-ethyl)-2,4-dioxo-1,2,3,4-tetrahydropyrimidine-5-carboxylic acid [4-(6,7-dimethoxyquinolin-4-yloxy)-3-fluorophenyl]-amide] | < 10 nM | < 10 nM | 
CCn1cc(C(=O)Nc2ccc(Oc3ccnc4cc(OC)cc(OC)c34)cc2)c(=O)n(-c2ccc(F)cc2)c1=O [Example 39, 1-Ethyl-3-(4-fluorophenyl)-2,4-dioxo-1,2,3,4-tetrahydropyrimidine-5-carboxylic acid [4-(5,7-dimethoxyquinolin-4-yloxy)-phenyl]-amide] | < 10 nM |  | 
CCn1nc(C(=O)Nc2ccc(Oc3ccnc4cc(OC)c(OC)cc34)cn2)c(=O)n(-c2ccc(F)cc2)c1=O [Example 164, 2-Ethyl-4-(4-fluoro-phenyl)-3,5-dioxo-2,3,4,5-tetrahydro-1,2,4-triazine-6-carboxylic acid [5-(6,7-dimethoxy-quinolin-4-yloxy)-pyridin-2-yl]-amide] |  | 10 to 100 nM | 
CCn1cc(C(=O)Nc2ccc(Oc3ccnc4ccc(OC)c(OC)c34)cc2)c(=O)n(-c2ccc(F)cc2)c1=O [Example 167, 1-Ethyl-3-(4-fluoro-phenyl)-2,4-dioxo-1,2,3,4-tetrahydro-pyrimidine-5-carboxylic acid [4-(5,6-dimethoxy-quinolin-4-yloxy)-phenyl]-amide] | < 10 nM |  | 
CCn1nc(C(=O)Nc2ccc(Oc3ccnc4cc(OC)c(OC)cc34)c(C(F)(F)F)c2)c(=O)n(-c2ccc(F)cc2)c1=O [Example 169, 2-Ethyl-4-(4-fluoro-phenyl)-3,5-dioxo-2,3,4,5-tetrahydro-1,2,4-triazine-6-carboxylic acid [4-(6,7-dimethoxy-quinolin-4-yloxy)-3-trifluoromethyl-phenyl]-amide] |  | < 10 nM | 

Further lines, with some results ahead:

IC50 [1] | IC50 [2, 3] | SMILES | IC50 [2]
< 10 nM | 10 to 100 nM | COCCn1cc(C(=O)Nc2ccc(Oc3ccnc4cc(OC)c(OC)cc34)c(F)c2)c(=O)n(-c2ccc(F)cc2)c1=O [Example 3, 3-(4-Fluorophenyl)-1-(2-methoxyethyl)-2,4-dioxo-1,2,3,4-tetrahydropyrimidine-5-carboxylic acid [4-(6,7-dimethoxyquinolin-4-yloxy)-3-fluorophenyl]-amide] | 
< 10 nM | < 10 nM | COc1cc2nccc(Oc3ccc(NC(=O)c4cn(CC5CC5)c(=O)n(-c5ccc(F)cc5)c4=O)cc3F)c2cc1OC [Example 6, 1-Cyclopropylmethyl-3-(4-fluorophenyl)-2,4-dioxo-1,2,3,4-tetrahydropyrimidine-5-carboxylic acid [4-(6,7-dimethoxyquinolin-4-yloxy)-3-fluorophenyl]-amide] | 
< 10 nM | 10 to 100 nM | COCCCn1cc(C(=O)Nc2ccc(Oc3ccnc4cc(OC)c(OC)cc34)c(F)c2)c(=O)n(-c2ccc(F)cc2)c1=O [Example 7, 3-(4-Fluorophenyl)-1-(3-methoxypropyl)-2,4-dioxo-1,2,3,4-tetrahydropyrimidine-5-carboxylic acid [4-(6,7-dimethoxyquinolin-4-yloxy)-3-fluorophenyl]-amide] | 
< 10 nM | < 10 nM | COc1cc2nccc(Oc3ccc(NC(=O)c4c[nH]c(=O)n(-c5ccc(F)cc5)c4=O)cc3F)c2cc1OC [Example 17, 3-(4-Fluorophenyl)-2,4-dioxo-1,2,3,4-tetrahydropyrimidine-5-carboxylic acid [4-(6,7-dimethoxyquinolin-4-yloxy)-3-fluorophenyl]-amide] | 
< 10 nM |  | COc1cc2nccc(Oc3ccc(NC(=O)c4cn(Cc5csc(C)n5)c(=O)n(-c5ccc(F)cc5)c4=O)cc3F)c2cc1OC [Example 75, 3-(4-Fluoro-phenyl)-1-(2-methyl-thiazol-4-ylmethyl)-2,4-dioxo-1,2,3,4-tetrahydro-pyrimidine-5-carboxylic acid [4-(6,7-dimethoxy-quinolin-4-yloxy)-3-fluoro-phenyl]-amide] | 
< 10 nM |  | COc1cc2nccc(Oc3ccc(NC(=O)c4cn(C5CCCC5)c(=O)n(-c5ccc(F)cc5)c4=O)cc3F)c2cc1OC [Example 76, 1-Cyclopentyl-3-(4-fluoro-phenyl)-2,4-dioxo-1,2,3,4-tetrahydro-pyrimidine-5-carboxylic acid [4-(6,7-dimethoxy-quinolin-4-yloxy)-3-fluoro-phenyl]-amide] | 
 | 101 to 1000 nM | COc1cc(Oc2ccnc3cc(OC)c(OC)cc23)ccc1NC(=O)c1nn(C(C)C)c(=O)n(-c2ccc(F)cc2)c1=O [Example 166, 4-(4-Fluoro-phenyl)-2-isopropyl-3,5-dioxo-2,3,4,5-tetrahydro-1,2,4-triazine-6-carboxylic acid [4-(6,7-dimethoxy-quinolin-4-yloxy)-2-methoxy-phenyl]-amide] | 
 | 10 to 100 nM | CCn1nc(C(=O)Nc2ccc(Oc3ccnc4cc(OC)c(OC)cc34)cc2OC)c(=O)n(-c2ccc(F)cc2)c1=O [Example 170, 2-Ethyl-4-(4-fluoro-phenyl)-3,5-dioxo-2,3,4,5-tetrahydro-1,2,4-triazine-6-carboxylic acid [4-(6,7-dimethoxy-quinolin-4-yloxy)-2-methoxy-phenyl]-amide] | 
